Laboratory results reported in the NIST ThermoML archive (doi:10.1021/acs.jced.7b00485).
Numbers after ± are expanded uncertainties.

Conditions: Liquid, Closed cell (Static) method

Row | vapor or sublimation pressure (294.23 K) | vapor or sublimation pressure (296.23 K) | vapor or sublimation pressure (308.21 K) | vapor or sublimation pressure (323.19 K) | SMILES | vapor or sublimation pressure (273.27 K) | vapor or sublimation pressure (288.25 K)
1 | 215 ± 1 kPa | 231 ± 1 kPa | 332 ± 1 kPa | 498 ± 1 kPa | CCCC [butane] | 104 ± 1 kPa | 177 ± 1 kPa
2 | – | – | – | – | FC(F)(F)C(F)(F)F [hexafluoroethane] | 1851 ± 3 kPa | 2708 ± 4 kPa
